Patent US10370402B2, “Process for the preparation of fluticasone propionate form 1” (Pfizer Limited, priority 2011, dated 2019)

Legend:
[1] = Particle size distribution of recrystallised fluticasone propionate by laser diffraction (Malvern Mastersizer 2000); format: physicochemical; settings: for D[v, 0.1]: 10th percentile volume diameter; for D[v, 0.1] / D[v, 0.5] / D[v, 0.9]: recrystallised batch, before micronisation; for D[v, 0.5]: 50th percentile (median) volume diameter; for D[v, 0.9]: 90th percentile volume diameter; for Ingoing particle size D[v, 0.5]: before micronisation (Table 3)
Procedure: The particle size distribution was measured on the Malvern Mastersizer 2000 laser diffraction system equipped with a Hydro 2000S liquid dispersion unit and flow cell. The sample was prepared by adding 15 drops of Tween 80 to crystallised fluticasone propionate within the glass 4 dram vial and mixing into a paste using a spatula, until all of the powder is wetted out and a smooth, uniform paste is achieved. Then the paste is added to the Hydro 2000S containing dispersant (0.1% Tween 80 in deionised water) using a spatula. When the obscuration target is achieved (20%±5%) the sample is left to stir within the Hydro 2000S for 1 minute to allow the particles to wet out, disperse and ensure a stable obscuration is achieved. Measurement is initiated after 1 minute of stirring.
The particle size data expressed as D[v, 0.1], D[v, 0.5] and D[v, 0.9] obtained from examples 2-9 are summarized below in Table 2. D[v, 0.1], D[v, 0.5] and D[v, 0.9] represent the 10th percentile volume diameter; 50th percentile volume diameter; and 90th percentile volume diameter respectively. In general the n^th percentile volume diameter is defined so that n % of the particles have a volume equivalent particle diameter smaller than or equal to the n^th percentile diameter. In the case of D[v, 0.5], it coincides with the median value.

[2] = Particle size distribution of micronised fluticasone propionate by laser diffraction (Sympatec HELOS); format: physicochemical; settings: after jet milling, JetPharma MC150, feed 15 g/min, mill pressure 3.5 bar, venturi 5.5 bar
Procedure: The particle size distribution was measured on the Sympatec HELOS laser diffraction system (with R1 optical module giving a measuring range of 0.1/0.18-35 μm) together with SUCELL dispersing module. 100 mg of micronised sample is weighed into a 4-dram vial and 15 drops (approximately 0.5 mL) of Tween 80 is added from a 3 ml wide-tipped pipette to the powder. The mixture is then carefully stirred into a paste until all the particles are wetted out and a uniform smooth mixture is achieved. Then the paste is added to the SUCELL containing dispersant (0.025% Tween 80 in deionised water) using a spatula. Once the optical concentration target is achieved (10-15%) then a measurement is taken.
Particles were micronized using a JetPharma MC150 (6 inch spiral jet mill) using the following conditions: • Feed rate: 15 g/min • Mill pressure: 3.5 bar • Venturi Pressure: 5.5 bar • Micronisation scale: 0.5 Kg.

Row | SMILES | D[v, 0.1] [1] | D[v, 0.5] [1] | D[v, 0.9] [1] | Ingoing particle size D[v, 0.5] [1] | Post-micronisation particle size D[v, 0.5] [2]
1 | CCC(=O)O[C@]1(C(=O)SCF)[C@H](C)C[C@H]2[C@@H]3C[C@H](F)C4=CC(=O)C=C[C@]4(C)[C@@]3(F)[C@@H](O)C[C@@]21C [Example 6, S-(fluoromethyl)-6α,9-difluoro-11β-17-dihydroxy-16α-methyl-3-oxoandrosta-1,4-diene-17β-carbothioate, 17-propionate] | 2.0 μm | 5.3 μm | 12.4 μm | – | –
2 | CCC(=O)O[C@]1(C(=O)SCF)[C@H](C)C[C@H]2[C@@H]3C[C@H](F)C4=CC(=O)C=C[C@]4(C)[C@@]3(F)[C@@H](O)C[C@@]21C [Example 3, S-(fluoromethyl)-6α,9-difluoro-11β-17-dihydroxy-16α-methyl-3-oxoandrosta-1,4-diene-17β-carbothioate, 17-propionate] | 2.1 μm | 5.1 μm | 11.357 μm | – | –
3 | CCC(=O)O[C@]1(C(=O)SCF)[C@H](C)C[C@H]2[C@@H]3C[C@H](F)C4=CC(=O)C=C[C@]4(C)[C@@]3(F)[C@@H](O)C[C@@]21C [Example 2, S-(fluoromethyl)-6α,9-difluoro-11β-17-dihydroxy-16α-methyl-3-oxoandrosta-1,4-diene-17β-carbothioate, 17-propionate] | 2.5 μm | 6.7 μm | 15.7 μm | – | –
4 | CCC(=O)O[C@]1(C(=O)SCF)[C@H](C)C[C@H]2[C@@H]3C[C@H](F)C4=CC(=O)C=C[C@]4(C)[C@@]3(F)[C@@H](O)C[C@@]21C [Example 9, S-(fluoromethyl)-6α,9-difluoro-11β-17-dihydroxy-16α-methyl-3-oxoandrosta-1,4-diene-17β-carbothioate, 17-propionate] | 6.2 μm | 22.5 μm | 53.4 μm | 22.5 μm | 4.0 μm
5 | CCC(=O)O[C@]1(C(=O)SCF)[C@H](C)C[C@H]2[C@@H]3C[C@H](F)C4=CC(=O)C=C[C@]4(C)[C@@]3(F)[C@@H](O)C[C@@]21C [Example 5, S-(fluoromethyl)-6α,9-difluoro-11β-17-dihydroxy-16α-methyl-3-oxoandrosta-1,4-diene-17β-carbothioate, 17-propionate] | 2.1 μm | 5.9 μm | 15.2 μm | – | –
6 | CCC(=O)O[C@]1(C(=O)SCF)[C@H](C)C[C@H]2[C@@H]3C[C@H](F)C4=CC(=O)C=C[C@]4(C)[C@@]3(F)[C@@H](O)C[C@@]21C [Example 7, S-(fluoromethyl)-6α,9-difluoro-11β-17-dihydroxy-16α-25 methyl-3-oxoandrosta-1,4-diene-17β-carbothioate, 17-propionate] | 3.4 μm | 11.4 μm | 32.1 μm | – | –
7 | CCC(=O)O[C@]1(C(=O)SCF)[C@H](C)C[C@H]2[C@@H]3C[C@H](F)C4=CC(=O)C=C[C@]4(C)[C@@]3(F)[C@@H](O)C[C@@]21C [Example 4, S-(fluoromethyl)-6α,9-difluoro-11β-17-dihydroxy-16α-methyl-3-oxoandrosta-1,4-diene-17β-carbothioate, 17-propionate] | 15.4 μm | 55.1 μm | 135.9 μm | – | –
8 | CCC(=O)O[C@]1(C(=O)SCF)[C@H](C)C[C@H]2[C@@H]3C[C@H](F)C4=CC(=O)C=C[C@]4(C)[C@@]3(F)[C@@H](O)C[C@@]21C [Example 8, S-(fluoromethyl)-6α,9-difluoro-11β-17-dihydroxy-16α-methyl-3-oxoandrosta-1,4-diene-17β-carbothioate, 17-propionate] | 1.3 μm | 2.8 μm | 5.6 μm | 2.8 μm | 2.3 μm
